Paper PMC8838898, “Identification of Novel Cannabinoid CB2 Receptor Agonists from Botanical Compounds and Preliminary Evaluation of Their Anti-Osteoporotic Effects” (Molecules, 2022)

Key:
CB2R [1] = biological target: T1, CB2R (Homo sapiens, UniProt P34972); assay: double luciferase reporter screening system in HEK293-CB2 cells; format: cell-based
T1 construct: expressed in transfected cells; host or cells: HEK293 cells stably transfected with pIRES2-EGFP-CB2, pGL4.29 [luc2P/CRE/Hygro] and pRL-TK
T1 sequence (P34972 whole entry): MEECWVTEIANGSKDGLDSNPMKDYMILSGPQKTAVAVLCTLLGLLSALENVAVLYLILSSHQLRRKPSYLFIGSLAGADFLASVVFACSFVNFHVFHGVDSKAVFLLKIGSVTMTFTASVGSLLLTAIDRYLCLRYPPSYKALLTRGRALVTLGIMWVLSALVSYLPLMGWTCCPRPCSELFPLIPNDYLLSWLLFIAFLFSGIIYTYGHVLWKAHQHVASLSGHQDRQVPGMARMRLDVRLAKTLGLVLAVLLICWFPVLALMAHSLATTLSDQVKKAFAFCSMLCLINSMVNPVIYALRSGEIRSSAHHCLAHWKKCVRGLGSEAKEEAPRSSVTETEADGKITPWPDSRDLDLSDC
Experimental: To generate the HEK293-CB2 cells, 5 × 10^5 HEK293 cells were cultured in a 60 mm culture dish for 12 h, washed with PBS, and then transfected with Lipofectamine 3000 reagent containing a test reporter plasmid, control reporter plasmid encoding Renilla luciferase, and effector plasmid. The ratio of the transfection plasmid pIRES2-EGFP-CB2, pGL4.29 [luc2P/CRE/Hygro], and pRL-TK was 2 μg, 10 μg, and 1μg, respectively. After a 24-htransfection, cells were selected and cultured in the medium containing G418 (800 μg·mL^−1) and hygromycin (400 μg·mL^−1) for two weeks. The surviving cells were picked and expanded as HEK293-CB2R cells.
Several aspects of the high-throughput screening system were optimized to ensure efficient and accurate application of the system for high-throughput data collection. To conduct high-throughput assays in 96-well plates, the number of cells seeded per well, incubation time, drug and AM630 concentrations, and the DMSO content were optimized. The dual luciferase assay was performed as described previously. […] Subsequently, the quantitative evaluation indexes of the high-throughput screening system, including the signal-to-background ratio, S/B = Msignal/Mbackground; signal window, SW = Msignal − Mbackground; signal-to-noise ratio, S/N = (Msignal − Mbackground)/SDbackground; signal background coefficient of variation, CV(%) = 100 × SDsignal/Msignal; and Z’ factor were determined to ensure its efficient and accurate application of the system in high-throughput data collection. Here, Z′ = 1 − 3(SDsignal + SDbackground)/|Msignal − Mbackground| [25], where M represents an average of the relative luminescence value and SD is the standard deviation of M.
The HEK293-CB2 cells from 10–40 passages were separately inoculated into 96-well plates at 5 × 10^3 cells per well. […] The results were expressed as relative luminescence values.
The HEK293-CB2 cells were inoculated on a 96-well culture plate with a density of 5 × 10^3 cells per well. […] The relative luminescence value was used to express the expression of CB2R.
Furthermore, the activation of the compounds on CB2R was also verified by using the CB2R inverse agonist AM630. The HEK293-CB2 cells were inoculated on a 6-well culture plate at a density of 5 × 10^4 cells per well. […] The expression of the CB2R gene is expressed by the relative luminescence value.

RAW264.7 macrophages = assay: viability of RAW264.7 macrophages (CCK8); format: cell-based, murine; conditions: 1 μM, three days
Experimental: (§1) The murine macrophage RAW264.7 cell line, which has the potential to differentiate into osteoclasts under the induction of RANKL, was obtained from the Cell Bank of the Chinese Academy of Sciences (Shanghai, China). The cells were cultured in DMEM containing 10% (v/v), 1% (v/v) penicillin, and streptomycin (Beyotime, Shanghai, China) at 37 °C in humidified air with 5% CO2, and then subcultured every two days. For induction of the osteoclasts, RAW264.7 cells were incubated with 25 ng·mL^−1 RANKL for 72 h. Osteoclasts were identified by TRAP staining.
RAW264.7 cells were inoculated in a 96-well plate at a density of 1 × 10^4 cells per well. After a 24-h culture at 37 °C, cells were treated with the test compounds for 48 h and cell viability was determined with the CCK-8 kit according to the instructions. RAW264.7 cells were inoculated on a 96-well culture plate at a density of 1 × 10^4 cells per well, induced with […] of nuclear factor-κB receptor activator ligand (RANKL) to differentiate into osteoclasts for 72 h. […] The reaction was terminated with 1 mol·L^−1 of NaOH solution (100 μL per well) and the absorbance was determined at a wavelength of 405 nm. […]

[2] = test system: osteoclasts derived from RAW264.7 cells; assay: F-actin ring formation assay in osteoclasts; format: cell-based, murine
Experimental: RAW264.7 cells were incubated in a confocal culture dish (diameter, 35 mm) at adensity of 5 × 10^4 cells·dish^−1 for 24 h, treated with 25 ng·mL^−1 RANKL and the screened compounds for five days, fixed with 4% paraformaldehyde for 30 min, stained with 5 μg·mL^−1 rhodamine-conjugated phalloidin (Sigma-Aldrich Chemical Co.) at 37 °C for 40 min, washed with PBS again, and stained again with 4′,6-diamidino-2-phenylindole (DAPI, Beyotime, Shanghai, China) for 10 min at room temperature (Li et al., 2018). The F-actin ring of the osteoclasts was observed under a fluorescent microscope (Axiovert 200, Carl Zeiss, Oberkochen, Germany). The fluorescence images of the cells were processed using Zeiss ZEN software.

mBMSCs cells = assay: proliferation of BMSCs (CCK8); format: cell-based, rat; conditions: 1 μM, 48 h
Experimental: (§2) BMSCs were isolated from the femur of 1-day-old Wistar rats and cultured in a dish containing α-MEM supplemented with 10% FBS, 100 U·mL^−1 penicillin, […] streptomycin, and 1% L-Glutaminea in a humidified atmosphere of 5% CO2 for 24 h. The medium was changed every three days. The subculture cells (passage 2–4) were used for subsequent experiments. BMSCs were identified in terms of the morphological character and properties of differentiation into osteoblasts. This experiment was approved by the Bioethics Committee of Zhejiang University of Traditional Chinese Medicine.
(§3) The BMSCs cells were inoculated in a 96-well plate at a density of 1 × 10^4 cells per well and cultured at 37 °C for 24 h. […] The optical density (OD) value was determined at 450 nm. The BMSCs cells were treated as described above and cultured for seven days to measure the ALP activity according to the kit instructions or cultured for five days to stain ALP in the osteoblasts according to the following procedures. Briefly, cells were washed with pre-cooled PBS twice and stained with the alkaline phosphatase staining solution for 30 min at 37 °C. After discarding the dye solution, cells were rinsed with distilled water three times and observed and photographed under a light microscope.

CB2R [3] = biological target: T1, CB2R; assay: forskolin-stimulated cAMP accumulation assay in HEK293-CB2 cells; format: cell-based; conditions: forskolin 30 min, then compound 6 h, read-out: IC50 of inhibition of forskolin-stimulated cAMP
Experimental: After treatment, the cell supernatant was diluted with PBS (pH 7.2–7.4). The cells were lysed by repeated freeze–thaw cycles and being centrifuged for 20 min at 2000–3000 r.p.m. The concentration of cAMP in the cell lysate was determined according to the instructions of the cAMP kit.

[4] = test system: osteoblasts derived from mBMSC; assay: bone mineralization nodules of osteoblasts (alizarin red staining); format: cell-based, rat; conditions: 1 μM, 14 days
Experimental: as §2
Cells were treated as described above for 14 days to observe the bone mineralized nodule formation using alizarin red staining solution. Briefly, the cells were washed with pre-cooled PBS twice, fixed with 3.7% formaldehyde for 10 min, and stained with ARS dye (pH = 4.2) containing 40 mM alizarin redstain for 10 min. The morphology and number of bone mineralized nodules of osteoblasts were observed under a light microscope.

[5] = test system: osteoclasts derived from RAW264.7 cells; assay: TRAP activity of osteoclasts derived from RAW264.7 cells induced with RANKL; format: cell-based, murine; conditions: 1 μM, three-day treatment; enzyme activity and cell staining
Experimental: as §1
RAW264.7 cells were inoculated in a 96-well plate at a density of 1 × 10^4 cells per well. After a 24-h culture at 37 °C, cells were treated with the test compounds for 48 h and cell viability was determined with the CCK-8 kit according to the instructions. RAW264.7 cells were inoculated on a 96-well culture plate at a density of 1 × 10^4 cells per well, induced with […] of nuclear factor-κB receptor activator ligand (RANKL) to differentiate into osteoclasts for 72 h. […] Briefly, the cells were washed with sodium thiobarbital twice, lysed with 0.1% Triton X-100 (10 μL per well) for 10 min, and then incubated with 100 μL of TRAP reaction solution (0.02 g disodium nitrophenyl phosphate and 0.1 g potassium sodium tartrate dissolved in 10 mL deionized water with pH adjusted to 3.5 by addition of 1 mol·L^−1 HCl) for 30 min at 37 °C. The reaction was terminated with 1 mol·L^−1 of NaOH solution (100 μL per well) and the absorbance was determined at a wavelength of 405 nm. The TRAP activity was expressed by the amount (mole) of p-nitrophenol produced by 100 osteoclasts. For staining, the osteoclasts were treated as described above, stained according to the instruction of the TRAP staining kit, and observed and photographed under a light microscope.

[6] = test system: osteoblasts derived from mBMSC; assay: ALP activity of osteoblasts derived from BMSCs; format: cell-based, rat; conditions: 1 μM, seven days
Experimental: as §2, §3

Question: For CCCCCCC(C)(C)c1cc(OC)c([C@@H]2C=C(CO)[C@@H]3C[C@H]2C3(C)C)c(OC)c1 [HU308], which “luciferase activity of HEK293-CB2 cells of passages 10, 15, 25, 35 and 40” value (CB2R [1]; 1 μM, 6-h treatment) is on record?
Answer: significantly increased

Question: What about the “viability of RAW264.7 macrophages” value (RAW264.7 macrophages) of the same compound?
Answer: had no inhibitory effects on the viability

Question: What about the “reversal of the F-actin ring effect by AM630” value ([2]; 1 μM AM630) of the same compound?
Answer: could also be reversed by AM630

Question: And the “formation of the F-actin ring in osteoclasts” value ([2]; five-day treatment, phalloidin staining)?
Answer: decreased the formation of the F-actin ring

Question: How did the “proliferation of mBMSCs cells” value (mBMSCs cells) turn out when O=c1c2cc(O)c(O)cc2oc2cc(O)c([C@@H]3O[C@H](CO)[C@@H](O)[C@H](O)[C@H]3O)c(O)c12 [Mangiferin] was run?
Answer: increased

Question: And the “agonistic effect on CB2R (relative luminescence / fluorescence expression in HEK293-CB2)” value (CB2R [1])?
Answer: could increase the fluorescence expression

Question: And the “reversal of the agonistic effect on CB2R by AM630” value (CB2R [1])?
Answer: could be abated by AM630

Question: And the IC50 (CB2R [3])?
Answer: 1170 nM

Question: What about the “matrix mineralization of osteoblasts derived from mBMSC” value [4] of the same compound?
Answer: increased

Question: And the “TRAP activity of osteoclasts derived from RAW264.7 cells induced with RANKL” value [5]?
Answer: inhibited TRAP activity

Question: And the “ALP activity of osteoblasts derived from mBMSC” value [6]?
Answer: increased
